The source made the active and inactive calls. For most assays here, no stated cut-off is given here; in the data, actives have a measured IC50 and inactives only a lower limit.
Legend:
Assay type in all cases: functional
[1] = molecular target: T1, Replicative DNA helicase DnaB (Mycobacterium tuberculosis, UniProt P9WMR3); assay: DnaB intein splicing inhibitors, dose response, biochemical, cell-free fluorescence (AID 449749)
T1 sequence (P9WMR3 whole entry): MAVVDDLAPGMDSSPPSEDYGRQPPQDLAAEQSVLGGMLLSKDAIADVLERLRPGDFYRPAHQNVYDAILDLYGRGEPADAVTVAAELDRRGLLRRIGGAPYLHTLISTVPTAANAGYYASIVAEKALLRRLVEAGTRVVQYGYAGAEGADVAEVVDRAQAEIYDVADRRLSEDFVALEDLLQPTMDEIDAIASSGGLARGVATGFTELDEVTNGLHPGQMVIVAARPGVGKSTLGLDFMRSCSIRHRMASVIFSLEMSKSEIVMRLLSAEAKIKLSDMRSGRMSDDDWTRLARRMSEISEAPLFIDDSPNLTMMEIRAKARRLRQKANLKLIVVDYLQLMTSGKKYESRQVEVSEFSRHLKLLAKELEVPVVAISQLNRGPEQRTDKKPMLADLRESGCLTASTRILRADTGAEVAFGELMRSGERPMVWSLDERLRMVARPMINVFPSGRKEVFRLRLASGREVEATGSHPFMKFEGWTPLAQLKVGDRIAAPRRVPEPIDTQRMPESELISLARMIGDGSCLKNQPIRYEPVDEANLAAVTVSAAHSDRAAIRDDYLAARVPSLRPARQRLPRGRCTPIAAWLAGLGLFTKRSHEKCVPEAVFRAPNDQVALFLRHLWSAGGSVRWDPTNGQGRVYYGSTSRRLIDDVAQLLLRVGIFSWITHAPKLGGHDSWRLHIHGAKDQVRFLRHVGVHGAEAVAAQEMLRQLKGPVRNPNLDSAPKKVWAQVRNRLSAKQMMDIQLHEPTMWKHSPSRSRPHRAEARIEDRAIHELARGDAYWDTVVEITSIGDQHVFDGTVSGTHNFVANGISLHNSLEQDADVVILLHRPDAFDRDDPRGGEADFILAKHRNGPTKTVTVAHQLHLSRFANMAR

[2] = molecular target: T2, Sentrin-specific protease 8 (Homo sapiens, UniProt Q96LD8);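 further: luminescence read-out of SENP8 inhibition, dose-response confirmation following an ultra-high-throughput screen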
T2 sequence (Q96LD8 whole entry): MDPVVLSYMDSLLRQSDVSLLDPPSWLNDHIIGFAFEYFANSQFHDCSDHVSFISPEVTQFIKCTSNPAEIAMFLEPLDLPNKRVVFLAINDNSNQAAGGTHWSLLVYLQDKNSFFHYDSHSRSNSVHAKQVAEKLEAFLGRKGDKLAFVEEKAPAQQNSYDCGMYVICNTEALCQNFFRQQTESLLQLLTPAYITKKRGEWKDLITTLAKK

[3] = molecular target: T3, Sentrin-specific protease 7 (Homo sapiens, UniProt Q9BQF6);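 further: Luminescence-based dose-response confirmation of ultra-high-throughput screening hits, measuring inhibition of SENP7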
T3 sequence (Q9BQF6 whole entry): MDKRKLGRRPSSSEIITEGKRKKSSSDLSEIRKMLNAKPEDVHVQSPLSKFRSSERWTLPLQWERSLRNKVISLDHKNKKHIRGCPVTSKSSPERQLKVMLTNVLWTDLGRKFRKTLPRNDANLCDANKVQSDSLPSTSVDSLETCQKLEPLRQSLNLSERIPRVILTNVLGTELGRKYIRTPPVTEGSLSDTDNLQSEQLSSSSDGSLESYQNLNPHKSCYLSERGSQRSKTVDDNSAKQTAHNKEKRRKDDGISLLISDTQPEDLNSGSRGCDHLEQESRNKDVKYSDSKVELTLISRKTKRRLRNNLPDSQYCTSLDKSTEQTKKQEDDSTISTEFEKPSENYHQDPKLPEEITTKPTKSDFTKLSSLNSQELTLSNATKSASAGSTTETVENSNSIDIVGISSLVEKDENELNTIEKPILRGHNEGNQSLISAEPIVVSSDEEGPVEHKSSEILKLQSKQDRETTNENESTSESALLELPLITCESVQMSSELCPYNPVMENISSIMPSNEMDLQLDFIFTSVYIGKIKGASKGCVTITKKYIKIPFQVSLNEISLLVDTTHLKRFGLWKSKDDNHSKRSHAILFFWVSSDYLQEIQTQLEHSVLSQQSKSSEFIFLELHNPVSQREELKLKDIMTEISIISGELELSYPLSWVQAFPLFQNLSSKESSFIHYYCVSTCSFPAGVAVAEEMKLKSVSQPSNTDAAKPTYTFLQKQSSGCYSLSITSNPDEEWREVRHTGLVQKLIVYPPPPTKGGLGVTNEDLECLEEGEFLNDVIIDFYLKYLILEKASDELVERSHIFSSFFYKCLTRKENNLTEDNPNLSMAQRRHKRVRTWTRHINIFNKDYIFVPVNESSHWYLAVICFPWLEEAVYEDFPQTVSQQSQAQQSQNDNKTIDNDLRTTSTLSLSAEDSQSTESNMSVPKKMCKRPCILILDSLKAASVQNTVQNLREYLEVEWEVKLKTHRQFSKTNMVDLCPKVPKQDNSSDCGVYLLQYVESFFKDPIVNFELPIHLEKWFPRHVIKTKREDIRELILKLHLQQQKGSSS

Caspase-3 = molecular target: T4, Caspase-3 (Homo sapiens, UniProt P42574);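 further: Dose-response selectivity test against caspase-3 for candidate inhibitors of sentrin-specific proteases (SENPs)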
T4 sequence (P42574 whole entry): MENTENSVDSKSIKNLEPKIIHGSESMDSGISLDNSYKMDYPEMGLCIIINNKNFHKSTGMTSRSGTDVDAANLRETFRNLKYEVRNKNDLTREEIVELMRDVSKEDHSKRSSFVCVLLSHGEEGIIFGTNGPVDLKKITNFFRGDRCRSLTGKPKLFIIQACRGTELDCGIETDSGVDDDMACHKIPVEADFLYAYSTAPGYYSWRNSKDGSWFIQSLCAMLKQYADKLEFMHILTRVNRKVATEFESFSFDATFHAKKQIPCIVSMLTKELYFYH

Structure (SMILES) | AC50 [1] | IC50 [2] | IC50 [3] | IC50 (Caspase-3)
O=C(O)CSc1cc(NS(=O)(=O)c2ccc(Cl)cc2)c2ccccc2c1O | 2.91 µM (active) |  |  | 
COc1ccccc1N1C(=O)Cc2ccccc2C1=O | > 380 µM (inactive) | 49.4 µM (active) | 31.2 µM (active) | 4.61 µM (active)
Oc1ccccc1/C=C/c1noc(-c2ccccc2O)n1 |  | > 100 µM (inactive) | 3.46 µM (active) | 39.7 µM (active)
Cc1cccc(N=Nc2ccc(N(C)C)cc2)c1 |  | 3.74 µM (active) | 2.52 µM (active) | 5.57 µM (active)
Cc1nn(-c2ccccc2)c(Cl)c1CN(C(=O)CCl)c1ccc(Cl)cc1 | 1.52 µM (active) |  |  | 

From ChEMBL document CHEMBL1201862, “PubChem BioAssay data set” (2004)
